Measured values reported in patent publication US10730860B2, “Diaminopyrimidine benzenesulfone derivatives and uses thereof” (Dana-Farber Cancer Institute, Inc., priority 2014, dated 2020).

Key:
[1] = target: T1, BRD4.1 (Homo sapiens (Human), UniProt O60885); experiment: Acetyl-Histone Binding Assay (AlphaScreen); settings: in vitro percent inhibition of BRD4.1 at 2.5 μM compound concentration; read-out: % INHIB (at 2.5 uM)
Experimental: Assays were performed with minor modifications from the manufacturer's protocol (PerkinElmer, USA). All reagents were diluted in 50 mM HEPES, 150 mM NaCl, 0.1% w/v BSA, and 0.01% w/v Tween^□ 20 at pH 7.5 and allowed to equilibrate to room temperature prior to addition to plates. After addition of Alpha beads to master solutions, all subsequent steps were performed in low light conditions. […] Addition to wells was performed with either a multichannel pipet (for optimization experiments) or a Biotek EL406 liquid handler. After a 1000-rpm spin-down for 1 minute, 100 nL of the solutions of the compounds of the invention from stock plates were added by pin transfer using a Janus Workstation (PerkinElmer, USA). The streptavidin-coated donor beads (25 μg/ml final) were added as with previous solution in a 2×, 10 μL volume. Following this addition, the plates were sealed with foil to block light exposure and to prevent evaporation. The plates were spun down again at 1000 rpm for 1 minute. Next, the plates were incubated in the room with the plate reader (for temperature equilibration) for 1.5 hour prior to reading the assay.

[2] = target: T1, BRD4.1; experiment: Isothermal Titration Calorimetery (ITC); type: binding; settings: BRD4.1, 25° C.
Experimental: Isothermal Titration Calorimetery
ITC was performed using a ITC200 microcalorimeter from GE™ (Northampton, Mass.). All experiments were carried out at 25° C. while stirring at 1000 rpm, in ITC buffer (50 mM HEPES pH 7.4 at 25° C., 150 mM NaCl). The microsyringe was loaded with a solution of the protein sample (225 μM, in ITC buffer). […] All titrations were conducted using an initial injection of 0.2 μl, followed by 19 identical injections of 2 μl with a duration of 5 sec (per injection) and a spacing of 90 sec between injections. The heat of dilution was determined by independent titrations (protein into buffer) and was subtracted from the experimental data. […] The collected data were implicated in the MicroCal™ Origin software supplied with the instrument to yield enthalpies of binding (ΔH) and binding constants (KB) as previously described by Wiseman and coworkers. Thermodynamic parameters were calculated (ΔG=ΔH−TΔS=−RT ln KB, where ΔG, ΔH and ΔS are the changes in free energy, enthalpy and entropy of binding respectively). A single binding site model was employed.

[3] = test system: HL60 cells; experiment: Cellular assay, cell viability (ATPlite), BRD4 dependent cell line HL60; type: cell-based; settings: Homo sapiens, HL-60, 72 h; BRD4 dependent cell line HL60, three days incubation
Experimental: (§1) The compounds of the invention are also evaluated in the BRD4 dependant cell line for the cellular activity to generate cellular IC50 values.
(§2) Cells (e.g., BRD4 dependant cells) were counted and adjusted to 60,000 cells/mL. Using a Biotek EL406, 50 μL of the cells in media were distributed into 384 well white plates from Thermo. Immediately after plating, compounds of the invention in DMSO were distributed to plates. For large plate sets, cells were returned to a 37° C. incubator while not in use. The compounds were added to plates using a 100 nL 384 well pin transfer manifold on a Janus workstation. Stocks were arrayed in 10 point quadruplicate dose response in DMSO stock in 384-well Greiner compound plates. After addition of the compounds, plates were incubated for three days in a 37° C. incubator. Cell viability was read out using ATPlite from Perkin Elmer. Plates were removed from the incubator and brought to room temperature prior to use. Lyophilized powder was resuspended in lysis buffer and diluted 1:2 with DI water. 25 μL of this solution was added to each well using the Biotek liquid handler. Plates were sealed with adherent aluminum seals prior to vortexing and spinning down at 1000 g for 1 minute. Plates were incubated for 15 minutes at room temperature before signal was read on an Envision Plate Reader.

[4] = test system: 797 cells; experiment: Cellular assay, cell viability (ATPlite), BRD4 dependent cell line 797; type: cell-based; settings: 72 h; BRD4 dependent cell line 797, three days incubation
Experimental: as §1, §2

With `Cc1cnc(Nc2ccc(OCCN3CCCC3)cc2)nc1Nc1cccc(S(=O)(=O)NC(C)(C)C)c1` the inhibition at 2.5 µM [1] was 36%.

`CC(C)(C)NS(=O)(=O)c1cccc(Nc2nc(Nc3ccc(OCCN4CCCC4)cc3)ncc2N)c1` was tested, and the Kd [2] was 483 nM, the EC50 [3] was 2070 nM and the EC50 [4] was 2400 nM.

`CCN1CCN(C(=O)Cc2ccc(Nc3ncc(F)c(Nc4ccc(C(=O)Nc5ccccc5Cl)cc4)n3)cc2)CC1` gave an inhibition at 2.5 µM [1] of 56.1%.
